Earlier results, collected in patent publication US11406658B2, “Composition comprising glycyrrhizin and cosmetic and pharmaceutical uses thereof” (ATG 20 S.R.L., priority 2018, dated 2022).

Columns and labels:
[1] = background art
[2] = oral administration; background art

## CC1(C)[C@@H](O[C@H]2O[C@H](C(=O)O)[C@@H](O)[C@H](O)[C@H]2O[C@@H]2O[C@H](C(=O)O)[C@@H](O)[C@H](O)[C@H]2O)CC[C@]2(C)[C@H]3C(=O)C=C4[C@@H]5C[C@@](C)(C(=O)O)CC[C@]5(C)CC[C@@]4(C)[C@]3(C)CC[C@@H]12.N [(mono)ammonium salt, (mono) ammonium glycyrrhizate]
[1]
  solubility: soluble in diluted acidic or basic solutions

## CC1(C)[C@@H](O[C@H]2OC(C(=O)O)[C@@H](O)C(O)C2O[C@H]2OC(C(=O)O)[C@@H](O)C(O)C2O)CC[C@]2(C)[C@H]3C(=O)C=C4[C@@H]5C[C@@](C)(C(=O)O)CC[C@]5(C)CC[C@@]4(C)[C@]3(C)CC[C@@H]12 (stereo partly shown) [Glycyrrhizin]
[2]
  bioavailability: extremely low
[1]
  solubility: not particularly water-soluble

## CC1(C)[C@@H](O[C@H]2OC(C(=O)[O-])[C@@H](O)C(O)C2O[C@H]2OC(C(=O)[O-])[C@@H](O)C(O)C2O)CC[C@]2(C)[C@H]3C(=O)C=C4[C@@H]5C[C@@](C)(C(=O)O)CC[C@]5(C)CC[C@@]4(C)[C@]3(C)CC[C@@H]12.[K+].[K+] (stereo partly shown) [potassium salt, dipotassium glycyrrhizate]
[1]
  solubility: water-soluble
